Laboratory results taken from patent publication US20050142531A1, “Peptidically buffered formulations for electrotransport applications and methods of making” (priority 2003, published 2005).
Square brackets hold non-standard residues; d marks the D form. Peptide text beside a SMILES is read from it. Cit = NC(=O)NCCC[C@H](N)C(=O)O; Orn = NCCC[C@H](N)C(=O)O

Assay: pKa, pI and % salt of peptidic buffers
Assay type: physicochemical
Settings: for pI: Table 2; for % salt: fraction ionized with net charge in aqueous solution at pH equal to the pI

| pka A (acidic pKa) (Table 2, first acidic pKa) | pka B (basic pKa) (Table 2, first basic pKa) | pka B (basic pKa) (Table 2, second basic pKa) | pka A (acidic pKa) (Table 2, second acidic pKa) | pka B (basic pKa) (Table 2, third basic pKa) | Compound | pka A (acidic pKa) (Table 2, third acidic pKa) | pI | % salt |
| --- | --- | --- | --- | --- | --- | --- | --- | --- |
| 2.42 | 6.71 | 8.37 | – | – | C[C@H](N)C(=O)N[C@@H](Cc1c[nH]cn1)C(=O)O [Ala-His] (H-Ala-His-OH; N-terminus and C-terminus assumed) | – | – | – |
| 2.64 | 8.05 | 12.50 | 4.10 | – | N=C(N)NCCC[C@H](N)C(=O)N[C@@H](CC(=O)O)C(=O)O [Arg-Asp] (H-Arg-Asp-OH; N-terminus and C-terminus assumed) | – | – | – |
| 2.74 | 7.92 | 12.50 | 4.18 | – | N=C(N)NCCC[C@H](N)C(=O)N[C@@H](CCC(=O)O)C(=O)O [Arg-Glu] (H-Arg-Glu-OH; N-terminus and C-terminus assumed) | – | – | – |
| 2.42 | 6.71 | 7.30 | – | – | NC(=O)C[C@H](N)C(=O)N[C@@H](Cc1c[nH]cn1)C(=O)O [Asn-His] (H-Asn-His-OH; N-terminus and C-terminus assumed) | – | – | – |
| 2.45 | 6.81 | 7.98 | 3.02 | – | N[C@@H](CC(=O)O)C(=O)N[C@@H](Cc1c[nH]cn1)C(=O)O [Asp-His] (H-Asp-His-OH; N-terminus and C-terminus assumed) | – | – | – |
| 2.42 | 6.71 | 7.90 | – | – | NC(=O)NCCC[C@H](N)C(=O)N[C@@H](Cc1c[nH]cn1)C(=O)O [Citrulline-His] (H-[Cit]-His-OH; N-terminus and C-terminus assumed) | – | – | – |
| 2.42 | 6.71 | 7.70 | – | – | NC(=O)CC[C@H](N)C(=O)N[C@@H](Cc1c[nH]cn1)C(=O)O [GIn-His] (H-Gln-His-OH; N-terminus and C-terminus assumed) | – | – | – |
| 2.66 | 7.94 | 12.50 | 4.01 | – | N=C(N)NCCC[C@H](NC(=O)[C@@H](N)CCC(=O)O)C(=O)O [Glu-Arg] (H-Glu-Arg-OH; N-terminus and C-terminus assumed) | – | – | – |
| 2.45 | 6.81 | 8.20 | 3.45 | – | N[C@@H](CCC(=O)O)C(=O)N[C@@H](Cc1c[nH]cn1)C(=O)O [Glu-His] (H-Glu-His-OH; N-terminus and C-terminus assumed) | – | – | – |
| 2.81 | 8.60 | – | 4.45 | – | NCC(=O)N[C@@H](CC(=O)O)C(=O)O [Gly-Asp] (H-Gly-Asp-OH; N-terminus and C-terminus assumed) | – | – | – |
| 2.62 | 6.10 | 7.80 | – | – | NC(=O)C[C@H](NC(=O)[C@@H](N)Cc1c[nH]cn1)C(=O)O [His-Asn] (H-His-Asn-OH; N-terminus and C-terminus assumed) | – | – | – |
| 3.05 | 6.10 | 7.80 | – | – | NC(=O)NCCC[C@H](NC(=O)[C@@H](N)Cc1c[nH]cn1)C(=O)O [His-Citrulline] (H-His-[Cit]-OH; N-terminus and C-terminus assumed) | – | – | – |
| 2.93 | 6.10 | 7.80 | – | – | NC(=O)CC[C@H](NC(=O)[C@@H](N)Cc1c[nH]cn1)C(=O)O [His-Gln] (H-His-Gln-OH; N-terminus and C-terminus assumed) | – | – | – |
| 3.05 | 6.10 | 7.80 | – | 9.70 | NCC(O)CC[C@H](NC(=O)[C@@H](N)Cc1c[nH]cn1)C(=O)O (stereo partly drawn) [His-Hydroxylysine] | – | – | – |
| 2.42 | 6.10 | 7.80 | – | – | N[C@@H](Cc1c[nH]cn1)C(=O)N1CC(O)C[C@H]1C(=O)O (stereo partly drawn) [His-Hydroxyproline] | – | – | – |
| 3.13 | 6.10 | 7.80 | – | – | CC[C@H](C)[C@H](NC(=O)[C@@H](N)Cc1c[nH]cn1)C(=O)O [His-Isoleucine] (H-His-Ile-OH; N-terminus and C-terminus assumed) | – | – | – |
| 3.10 | 6.10 | 7.80 | – | – | CC(C)C[C@H](NC(=O)[C@@H](N)Cc1c[nH]cn1)C(=O)O [His-Leu] (H-His-Leu-OH; N-terminus and C-terminus assumed) | – | – | – |

| pka A (acidic pKa) (Table 2, first acidic pKa) | pka B (basic pKa) (Table 2, first basic pKa) | pka B (basic pKa) (Table 2, second basic pKa) | pka A (acidic pKa) (Table 2, second acidic pKa) | pka B (basic pKa) (Table 2, third basic pKa) | Compound | pka A (acidic pKa) (Table 2, third acidic pKa) | pI | % salt |
| --- | --- | --- | --- | --- | --- | --- | --- | --- |
| 3.05 | 6.10 | 7.80 | – | 11.00 | NCCCC[C@H](NC(=O)[C@@H](N)Cc1c[nH]cn1)C(=O)O [His-Lys] (H-His-Lys-OH; N-terminus and C-terminus assumed) | – | – | – |
| 2.89 | 6.10 | 7.80 | – | – | CSCC[C@H](NC(=O)[C@@H](N)Cc1c[nH]cn1)C(=O)O [His-Met] (H-His-Met-OH; N-terminus and C-terminus assumed) | – | – | – |
| 2.82 | 6.10 | 7.80 | – | 11.00 | NCCC[C@H](NC(=O)[C@@H](N)Cc1c[nH]cn1)C(=O)O [His-Ornithine] (H-His-[Orn]-OH; N-terminus and C-terminus assumed) | – | – | – |
| 2.88 | 6.10 | 7.80 | – | – | N[C@@H](Cc1c[nH]cn1)C(=O)N[C@@H](Cc1ccccc1)C(=O)O [His-Phe] (H-His-Phe-OH; N-terminus and C-terminus assumed) | – | – | – |
| 2.65 | 6.10 | 7.80 | – | – | N[C@@H](Cc1c[nH]cn1)C(=O)N[C@@H](CO)C(=O)O [His-Ser] (H-His-Ser-OH; N-terminus and C-terminus assumed) | – | – | – |
| 2.98 | 6.10 | 7.80 | – | – | C[C@@H](O)[C@H](NC(=O)[C@@H](N)Cc1c[nH]cn1)C(=O)O [His-Thr] (H-His-Thr-OH; N-terminus and C-terminus assumed) | – | – | – |
| 3.07 | 6.10 | 7.80 | – | – | N[C@@H](Cc1c[nH]cn1)C(=O)N[C@@H](Cc1c[nH]c2ccccc12)C(=O)O [His-Trp] | – | – | – |
| 2.13 | 6.10 | 7.80 | 9.97 | – | N[C@@H](Cc1c[nH]cn1)C(=O)N[C@@H](Cc1ccc(O)cc1)C(=O)O [His-Tyr] (H-His-Tyr-OH; N-terminus and C-terminus assumed) | – | – | – |
| 3.18 | 6.10 | 7.80 | – | – | CC(C)[C@H](NC(=O)[C@@H](N)Cc1c[nH]cn1)C(=O)O [His-Val] (H-His-Val-OH; N-terminus and C-terminus assumed) | – | – | – |
| 2.42 | 6.71 | 7.40 | – | 9.70 | NCC(O)CC[C@H](N)C(=O)N[C@@H](Cc1c[nH]cn1)C(=O)O (stereo partly drawn) [Hydroxylysine-His] | – | – | – |
| 2.42 | 6.71 | 8.23 | – | – | O=C(O)[C@H](Cc1c[nH]cn1)NC(=O)[C@@H]1CC(O)CN1 (stereo partly drawn) [Hydroxyproline-His] | – | – | – |
| 2.42 | 6.71 | 8.20 | – | – | CC[C@H](C)[C@H](N)C(=O)N[C@@H](Cc1c[nH]cn1)C(=O)O [Isoleucine-His] (H-Ile-His-OH; N-terminus and C-terminus assumed) | – | – | – |
| 2.42 | 6.71 | 8.25 | – | – | CC(C)C[C@H](N)C(=O)N[C@@H](Cc1c[nH]cn1)C(=O)O [Leu-His] (H-Leu-His-OH; N-terminus and C-terminus assumed) | – | – | – |
| 2.42 | 6.71 | 8.00 | – | 11.00 | NCCCC[C@H](N)C(=O)N[C@@H](Cc1c[nH]cn1)C(=O)O [Lys-His] | – | – | – |
| 2.42 | 6.71 | 7.97 | – | – | CSCC[C@H](N)C(=O)N[C@@H](Cc1c[nH]cn1)C(=O)O [Met-His] (H-Met-His-OH; N-terminus and C-terminus assumed) | – | – | – |
| 2.42 | 6.71 | 7.30 | – | 11.00 | NCCC[C@H](N)C(=O)N[C@@H](Cc1c[nH]cn1)C(=O)O [Ornithine-His] | – | – | – |
| 2.42 | 6.71 | 7.70 | – | – | N[C@@H](Cc1ccccc1)C(=O)N[C@@H](Cc1c[nH]cn1)C(=O)O [Phe-His] (H-Phe-His-OH; N-terminus and C-terminus assumed) | – | – | – |

| Compound | pka A (acidic pKa) (Table 2, first acidic pKa) | pka B (basic pKa) (Table 2, first basic pKa) | pka B (basic pKa) (Table 2, second basic pKa) | pka A (acidic pKa) (Table 2, second acidic pKa) | pka B (basic pKa) (Table 2, third basic pKa) | pka A (acidic pKa) (Table 2, third acidic pKa) | pI | % salt |
| --- | --- | --- | --- | --- | --- | --- | --- | --- |
| Cn1cncc1C[C@H](NC(=O)CCN)C(=O)O [Anserine] | 2.64 | 7.04 | 9.49 | – | – | – | – | – |
| N[C@@H](CC(=O)O)C(=O)N[C@@H](CC(=O)O)C(=O)O [Asp-Asp] (H-Asp-Asp-OH; N-terminus and C-terminus assumed) | 2.70 | 8.26 | – | 3.40 | – | 4.70 | – | – |
| NCCC(=O)N[C@@H](Cc1cnc[nH]1)C(=O)O [Beta-Alanylhistidine] | 2.60 | 6.70 | 8.70 | – | – | – | 7.70 | 16% |
| NCCC(=O)N[C@@H](Cc1cnc[nH]1)C(=O)O [Carnosine] | 2.64 | 6.83 | 9.51 | – | – | – | 8.17 | 8% |
| N[C@@H](Cc1c[nH]cn1)C(=O)N[C@@H](Cc1c[nH]cn1)C(=O)O [His-His] | 2.25 | 5.40 | 6.80 | – | 7.95 | – | – | – |
| N[C@@H](Cc1c[nH]cn1)C(=O)N1CCC[C@H]1C(=O)O [His-Pro] | 2.62 | 6.10 | 7.80 | – | – | – | – | – |
